Assay results published in patent publication US20220133895A1, “CAMPTOTHECIN-BASED DIMER COMPOUND, ANTICANCER DRUG AND METHOD OF ELIMINATING CANCER STEM CELL” (HUAZHONG UNIVERSITY OF SCIENCE AND TECHNOLOGY, priority 2020, published 2022).

Key:
[1] = test system: 4T1 (breast cancer) cells; assay: In vitro induction of immunogenic cell death; assay type: cell-based, mouse; settings: 4T1 cells, 10 μM, 48 hours
Description: The in vitro activity of the compound CN in inducing immunogenic cell death was evaluated.
4T1 (breast cancer) cells were seeded into a 6-well plate at a density of 1×10^5 cells per well and cultured overnight. The cells were treated with PBS, CPT (camptothecin), NLG (IDO inhibitor), CPT+NLG, CN (all drug concentrations were 10 μM) for 48 hours. The supernatant was collected and cultured to detect the release of ATP and HMGB-1. The cells were trypsinized, then incubated with CRT antibody on ice for 30 minutes in the dark, and analyzed by flow cytometry. In addition, CRT eversion was also studied by immunofluorescence imaging. 4T1 cells were seeded into a confocal culture dish at a density of 1×10^5 cells per well and cultured overnight. The cells were treated with PBS, CPT (camptothecin), NLG (IDO inhibitor), CPT+NLG, CN (all drug concentrations were 10 μM) for 48 hours. The cells were washed twice with PBS and incubated with CRT antibody for 30 minutes. Washing was performed twice with PBS, and fixing was then performed with 4% paraformaldehyde. After washing was performed twice with PBS again, the nucleus was stained with DAPI for 30 minutes. After washing was performed twice, the cells were imaged with a confocal microscope.

[2] = test system: mouse 4T1 breast cancer orthotopic tumor; assay: In vivo anti-tumor activity, intratumoral injection, 4T1 orthotopic model; settings: for tumor suppression rate: BALB/c mice, CPT 1 mg/kg or CN 2.4 mg/kg intratumoral, NLG 500 ug/mouse gavage
cancer stem cells = assay: Effect on cancer stem cells (cell cycle, 3D tumor spheroids) from treated 4T1 tumors; assay type: in vivo, mouse; settings: for G1-S cell cycle / dormancy of cancer stem cells: CD133, EdU, hoechst33342 flow cytometry
Description: The effect of the compound CN on cancer stem cells is studied, the specific steps were proceeded as follows. In the single cell suspension prepared in Example 6, the cell cycle (CD133, EdU, hoechst33342) of cancer stem cells was stained with antibodies, and the dormancy of the cancer stem cells was analyzed by flow cytometry. […] Fibrinogen was diluted to 20 mg/mL with T7 buffer (pH 7.4, 50 mM Tris, 150 mM NaCl), and then mixed with the above cell suspension in equal volume. 1 μL of thrombin (0.1 U/μL) was added to the 96-well plate in advance, and 50 μL of the mixed cell suspension was added. […] On the seventh day, the cell pellets in the 96-well plate were photographed and counted. The particle size of tumor cell spheroids was measured, and the number of tumor cell spheroids was counted to characterize the stemness and tumor-forming ability of tumor cells.

IDO = target: T1, IDO (Homo sapiens, UniProt P14902); assay: In vitro IDO inhibitory activity in IFN-γ-stimulated Hela cells; assay type: cell-based
T1 construct: endogenous in cells; host or cells: HeLa cells stimulated with human IFN-γ
Description: The inhibitory activity of the compound CN on IDO in vitro was investigated.
Hela cells were plated with a 96-well plate at 4,000 cells/well in DMEM complete medium containing 80 ng/ml of human IFN-γ, and incubated with a series of DMEM medium containing CN or NLG at a concentration of 0 μM, 0.1 μM, 1 μM, 10 μM, and 100 μM for 24 hours after 12 hours. 150 ul culture medium was aspirated, 75 ul trichloroacetic acid aqueous solution (30% w/v) was added, incubated at 50° C. for 30 min, and centrifuged at 3000 rpm for 10 minutes. 100 ul of the supernatant was collected, 100 ul of p-dimethylaminobenzaldehyde glacial acetic acid solution (2%, w/v) was added, placed at room temperature for 10 minutes, and the absorption was detected at 492 nm.

[3] = test system: mouse 4T1 breast cancer orthotopic tumor; assay: Effect on antitumor immune response (DC maturation, Treg) in 4T1 tumor mice; assay type: in vivo; settings: for regulatory T cells (Treg) in tumors: flow cytometry CD3, CD4, CD25, FoxP3
From the text: The effect of the compound CN on antitumor immune response is studied, the specific steps were proceeded as follows. The tumor and adjacent lymph nodes of the mice in Example 4 were stripped. […] The adjacent lymph nodes were squeezed through a 200-mesh screen to prepare a single cell suspension, and the maturation of lymph node dendritic cells (DC cells, CD11c, CD80, CD86) was studied with antibodies.

[4] = test system: mouse 4T1 breast cancer orthotopic tumor; assay: Anti-tumor activity of CN@PHF, tail vein, 4T1 orthotopic model; assay type: in vivo; settings: CN 2.4 mg/kg, days 1, 4, 7, 10
From the text: The anti-tumor activity of CN@PHF in the mouse 4T1 breast cancer orthotopic tumor model was investigated and the specific steps were proceeded as follows:
At the age of 6 weeks, 20 g female BALB/c mice were inoculated with 5×10^5 cells of mouse breast cancer 4T1 cell suspension into the fourth pair of left breast pads on the abdomen of female BALB/c mice to establish a mouse model of 4T1 tumor in situ. When the tumor volume in situ was about 100 mm^3, the mice were randomly divided into 5 groups, 10 mice in each group, and were injected with normal saline, CN, Taxol, Irinotecan, CN@PHF through the tail vein. The dose of CN was 2.4 mg/kg, and the concentrations of Taxol and Irinotecan were the same as the molar concentration of CN. The administration time on the first day was recorded as the first day, and then the above-mentioned doses were administered on the 4th, 7th, and 10th days. From the 1st day, the mouse body weight and tumor volume were measured every other day, and the tumor volume-time curve was drawn. The mice were sacrificed on the 19th day, the tumor in situ was removed, weighed, and photographed. Tumors were stained with HE and TUNEL to study tumor cell apoptosis and stained with Ki67 to study tumor cell proliferation.

[5] = Reduction responsiveness in GSH solution, by mass spectrometry; assay type: physicochemical; settings: 100 mM GSH aqueous solution, stirred 12 hours
Description: Study on the reduction responsiveness of compounds was performed as follows.
A small amount of the compound CN was added to 100 mM GSH aqueous solution and stirred for 12 hours.

[6] = test system: mouse 4T1 breast cancer orthotopic tumor; assay: Influence on the cancer stem cell niche, 4T1 orthotopic model; assay type: in vivo; settings: tail vein, day 13, CD133, EdU, hoechst33342
Description: At the age of 6 weeks, 20 g female BALB/c mice were inoculated with 5×10^5 cells of mouse breast cancer 4T1 cell suspension into the fourth pair of left breast pads on the abdomen of female BALB/c mice to establish a mouse model of 4T1 tumor in situ. […] The administration time on the first day was recorded as the first day, and then the above-mentioned doses were administered on the 4th, 7th, and 10th days. On the 13th day, 50 μL of Edu (8 mg/ml) was injected into the tumor. Three hours later, the mice were sacrificed, the tumor in situ was stripped and divided into two parts. […] Flow cytometric analysis of the cell cycle (CD133, EdU, hoechst33342) of cancer stem cells was carried out to investigate the effect of drugs on the dormancy of cancer stem cells.

T1 sequence (P14902 whole entry): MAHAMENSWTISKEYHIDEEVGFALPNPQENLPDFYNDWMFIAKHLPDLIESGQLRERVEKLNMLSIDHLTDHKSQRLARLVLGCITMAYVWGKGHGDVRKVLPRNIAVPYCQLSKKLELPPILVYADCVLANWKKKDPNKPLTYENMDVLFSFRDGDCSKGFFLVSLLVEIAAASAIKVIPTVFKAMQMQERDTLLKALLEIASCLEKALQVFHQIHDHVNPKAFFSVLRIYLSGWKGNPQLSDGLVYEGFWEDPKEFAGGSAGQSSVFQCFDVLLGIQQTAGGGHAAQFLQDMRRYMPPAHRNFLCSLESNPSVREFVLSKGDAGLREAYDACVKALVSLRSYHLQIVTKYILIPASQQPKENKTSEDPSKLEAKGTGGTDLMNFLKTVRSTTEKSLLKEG

SMILES | ATP release relative to CPT and CPT+NLG groups [1] | CRT eversion, confocal imaging [1] | ability to induce CRT eversion relative to CPT group, flow cytometry [1] | ability to induce HMGB-1 [1] | tumor suppression rate ([2]; days 1, 4, 7, 10) | tumor volume ([2]; intratumoral injection, 2.4 mg/kg, days 1, 4, 7, 10) | tumor elimination ([2]; intratumoral injection, 8 mice per group, day 15) | weight of the tumor ([2]; intratumoral injection, sacrificed day 15) | G1-S cell cycle / dormancy of cancer stem cells (cancer stem cells) | number and particle size of 3D spheres of tumor cells (cancer stem cells; fibrin gel culture, seventh day) | IC50 (IDO) | inhibition at 1 µM (IDO; HeLa, read-out: IDO inhibition rate) | regulatory T cells (Treg) in tumors [3] | DC maturation in lymph nodes adjacent to tumors ([3]; flow cytometry CD11c, CD80, CD86) | proportion of mature DC relative to CPT group ([3]; lymph nodes adjacent to tumors) | tumor volume [4] | reduction responsiveness (degradation products) [5] | dormancy / cycle inhibition of cancer stem cells [6]
CC[C@@]1(OC(=O)OCSSCOC(=O)OC(CC2c3ccccc3-c3cncn32)C2CCCCC2)C(=O)OCc2c1cc1n(c2=O)Cc2cc3ccccc3nc2-1 (stereo partly drawn) [CN] | 2-3 times | more CRT eversion | about 1.5 times | significantly stronger than that of the other groups | 85% | significantly smaller than that of the other groups | one tumor was completely eliminated | significantly lower than that of the other groups | significantly reduce the G1/S ratio | significantly lower than those in the other groups | ~80 nM | ~100% | reverse the increase in Treg caused by CPT | increased significantly | about twice that of CPT group | significantly smaller than the normal saline group and the positive drugs Taxol and Irinotecan groups | degraded to the original camptothecin and NLG919 | 
CC[C@@]1(O)C(=O)OCc2c1cc1n(c2=O)Cc2cc3ccccc3nc2-1 [CPT, camptothecin] |  |  |  |  | 61.9% |  |  |  | block the G1-S cell cycle of cancer stem cells |  |  |  | significant increase in Treg |  |  |  |  | 
CCc1c2c(nc3ccc(OC(=O)N4CCC(N5CCCCC5)CC4)cc13)-c1cc3c(c(=O)n1C2)COC(=O)[C@]3(O)CC [Irinotecan] |  |  |  |  |  |  |  |  |  |  |  |  |  |  |  |  |  | increase the dormancy of cancer stem cells
